By IC50 is commonly meant the concentration that gives 50% inhibition.

The nature of test [1]: Antiproliferative activity against human A875 cells assessed as inhibition of cell growth incubated for 24 hrs by MTT reagent based ELISA. The class given is functional. Particulars: A875, 24 h.
A short description of test [2]: Antiproliferative activity against human CAL-78 cells assessed as inhibition of cell growth incubated for 24 hrs by CellTiter-Glo luminescent assay. The class given is functional, cell-based. Particulars: CAL-78, 24 h.
In test [3] the test system is SW1353. Nature of the test: Antiproliferative activity against human SW1353 cells assessed as inhibition of cell growth incubated for 24 hrs by CellTiter-Glo luminescent assay. It is filed as functional, cell-based. To be noted: SW1353, 24 h. Background: ATP-based viability assays read luminescence as a measure of living cells.
The test system of test [4] is SBcl2. In words: Antiproliferative activity against human SBcl2 cells assessed as inhibition of cell growth incubated for 72 hrs by XTT assay. It is filed as functional, cell-based. Particulars: SBcl2, 72 h. For orientation: Tetrazolium dyes change colour on reduction, which living cells bring about.
Test [5] is described as follows: Antiproliferative activity against human WM9 cells assessed as inhibition of cell growth incubated for 72 hrs by XTT assay. To be noted: WM9, 72 h. It is filed as functional, cell-based.
For test [6], the system named is WM164. Nature of the test: Antiproliferative activity against human WM164 cells assessed as inhibition of cell growth incubated for 72 hrs by XTT assay. Particulars: WM164, 72 h. The class given is functional, cell-based.
For test [7], the system named is MUGMel2. Nature of the test: Antiproliferative activity against human MUG-Mel2 cells assessed as inhibition of cell growth incubated for 72 hrs by XTT assay. The class given is functional, cell-based. To be noted: MUGMel2, 72 h.
The nature of test [8]: Antiproliferative activity against human FS-1 [Human leukemia] cells assessed as inhibition of cell growth incubated for 72 hrs by XTT assay. The class given is functional, cell-based.
Test [9] deals with SW872. Nature of the test: Antiproliferative activity against human SW872 cells assessed as inhibition of cell growth incubated for 72 hrs by MTT reagent based microplate reader assay. To be noted: SW872, 72 h. It is filed as functional.
Test [10] is described as follows: Antiproliferative activity against human A875 cells assessed as inhibition of cell growth incubated for 72 hrs by MTT reagent based microplate reader assay. It is filed as functional. To be noted: A875, 72 h.
The subject of test [11] is A549. In words: Antiproliferative activity against human A549 cells assessed as inhibition of cell growth incubated for 72 hrs by MTT reagent based microplate reader assay. The class given is functional. To be noted: A549, 72 h.
Test [12] relates to DLD-1. In words: Antiproliferative activity against human DLD-1 cells assessed as inhibition of cell growth incubated for 96 hrs by CCK-8 assay. It is filed as functional, cell-based. To be noted: DLD-1, 96 h.
Test [13] deals with HCT-8. Nature of the test: Antiproliferative activity against human HCT-8 cells assessed as inhibition of cell growth incubated for 96 hrs by CCK-8 assay. It is filed as functional, cell-based. To be noted: HCT-8, 96 h.
For test [14], the system named is HCT-29. Nature of the test: Antiproliferative activity against human HCT-29 cells assessed as inhibition of cell growth incubated for 96 hrs by CCK-8 assay. To be noted: HCT-29, 96 h. It is filed as functional, cell-based.
Test [15] concerns DU-145. Nature of the test: Cytotoxicity against human DU-145 cells incubated for 48 hrs by sulforhodamine B staining based spectrophotometric analysis. It is filed as functional, cell-based. Particulars: DU-145, 48 h. (In SRB staining, fixed cells bind dye roughly in proportion to their protein.)
Test [16] concerns MCF7. Nature of the test: Cytotoxicity against human MCF7 cells incubated for 48 hrs by sulforhodamine B staining based spectrophotometric analysis. The class given is functional, cell-based. Particulars: MCF7, 48 h.
For test [17], the system named is MDA-MB-468. Nature of the test: Cytotoxicity against human MDA-MB-468 cells assessed as reduction in cell growth incubated upto 72 hrs by MTT assay. It is filed as functional, cell-based. To be noted: MDA-MB-468, 72 h.
For test [18], the system named is MCF7. In words: Cytotoxicity against human MCF7 cells assessed as reduction in cell growth incubated upto 72 hrs by MTT assay. Particulars: MCF7, 72 h. The class given is functional, cell-based.
For test [19], the system named is MOLM-14. Nature of the test: Cytotoxicity against human MOLM-14 cells incubated for 48 hrs. It is filed as functional, cell-based. Particulars: MOLM-14, 48 h.
Test [20] has as its system MV4-11. Nature of the test: Cytotoxicity against human MV4-11 cells incubated for 48 hrs. The class given is functional, cell-based. To be noted: MV4-11, 48 h.
The test system of test [21] is HCT-116. Nature of the test: Cytotoxicity against human HCT-116 cells incubated for 72 hrs by MTT assay. The class given is functional, cell-based. To be noted: HCT-116, 72 h.
Test [22] has as its system A549. Nature of the test: Cytotoxicity against human A549 cells incubated for 72 hrs by MTT assay. To be noted: A549, 72 h. It is filed as functional, cell-based.
In test [23] the test system is MDA-MB-435. Nature of the test: Cytotoxicity against human MDA-MB-435 cells incubated for 72 hrs by MTT assay. The class given is functional, cell-based. Particulars: MDA-MB-435, 72 h.
The test system of test [24] is MDA-MB-231. Nature of the test: Antiproliferative activity against human MDA-MB-231 cells incubated for 48 hrs by MTT assay. The class given is functional, cell-based. Particulars: MDA-MB-231, 48 h.
Test [25] deals with HepG2. In words: Antiproliferative activity against human HepG2 cells incubated for 48 hrs by MTT assay. It is filed as functional, cell-based. Particulars: HepG2, 48 h.
Test [26] relates to A549. In words: Antiproliferative activity against human A549 cells incubated for 48 hrs by MTT assay. The class given is functional, cell-based. To be noted: A549, 48 h.
The subject of test [27] is PC-3. Nature of the test: Cytotoxicity against human PC-3 cells assessed as inhibition of cell growth incubated for 72 hrs by sulforhodamine B assay. The class given is functional, cell-based. To be noted: PC-3, 72 h.
Test [28] has as its system HT-29. In words: Cytotoxicity against human HT-29 cells assessed as inhibition of cell growth incubated for 72 hrs by sulforhodamine B assay. It is filed as functional, cell-based. Particulars: HT-29, 72 h.
For test [29], the system named is MCF7. In words: Cytotoxicity against human MCF7 cells assessed as inhibition of cell growth incubated for 72 hrs by sulforhodamine B assay. The class given is functional, cell-based. Particulars: MCF7, 72 h.

Consider `CC(C)=CC[C@@H](OC(=O)Cc1ccc(Oc2ccccc2)cc1)C1=CC(=O)c2c(O)ccc(O)c2C1=O`, for which the IC50 in [1] was found to be 1.24 µM.

`CC(C)=CC[C@@H](OC(=O)C1CC1)C1=CC(=O)c2c(O)ccc(O)c2C1=O`: the values for the 50% inhibitory concentration (IC50) in test [2] and in test [3] were 2.9 µM and 1.2 µM, respectively.

`CC(C)=C/C=C/C1=C(C(CC=C(C)C)C2=CC(=O)c3c(O)ccc(O)c3C2=O)C(=O)c2c(O)ccc(O)c2C1=O` (centres undefined): the IC50 in [4] worked out at 0.3 µM; in [5], 0.6 µM; in test [6], 1.7 µM; in [7] it was 0.7 µM; in test [8], 0.5 µM.

As to `CC(C)=CC[C@@H](OC(=O)/C=C\c1cccc(C(F)(F)F)c1)C1=CC(=O)c2c(O)ccc(O)c2C1=O`, the IC50 in [9] is 0.69 µM; in test [10], 0.65 µM; in test [11] it was 1.62 µM.

Consider `COC(=O)C(CS[C@H](CC=C(C)C)C1=CC(=O)c2c(O)ccc(O)c2C1=O)NC(=O)c1cc(S(C)(=O)=O)ccc1OC` (some centres undefined), for which the IC50 in test [12] was found to be 10 µM; in test [13] it was 2.16 µM; in [14], 3.57 µM.

As to `O=C1C(Cl)=C(NCCN2CCN(C3=C(Cl)C(=O)c4ccccc4C3=O)CC2)C(=O)c2ccccc21`, the IC50 in test [15] is 2.52 µM; in test [16], 2.16 µM.

As for `CC1=C(Cl)C(=O)c2c(O)cccc2C1=O`, the IC50 is 0.6 µM in test [17] and 2 µM in [18].

As for `O=C1C(NCCO)=C(C2=C(NCCO)C(=O)c3ccccc3C2=O)C(=O)c2ccccc21`, the half-inhibitory concentration (IC50) in test [19] is 0.16 µM; in [20], 0.2 µM.

For `CC1(C)O[C@H]2[C@@H](O1)[C@@H](Cn1nnc3c1C(=O)c1cccc(O)c1C3=O)O[C@@H]1OC(C)(C)O[C@@H]12`, the IC50 in test [21] amounted to 0.52 µM; in test [22], 0.99 µM; in [23], 0.29 µM.

With `CC1=C(CCNC(=O)c2ccccc2)C(=O)c2c(O)cccc2C1=O`, the figures for the IC50 in [24], in test [25] and in test [26] were 6.01 µM, 7.2 µM and 7.02 µM, respectively.

On to `CN(C)N1C=C2C[C@@H](O[Si](C)(C)C(C)(C)C)[C@@H]3OC(C)(C)O[C@@H]3[C@H]2C2=C1C(=O)c1c(O)cccc1C2=O`, for which the IC50 is 0.7 µM in [27], 0.2 µM in [28] and 16 µM in test [29].
